From paper PMC4224963 (ChemMedChem, 2014)
Blank lines part the entries; values can stand above or below the molecule they belong to.

What was measured:
human NAAA [1] = biological target: T1, human NAAA (Homo sapiens, UniProt Q02083); experiment: Fluorogenic h-NAAA assay; type: biochemical
T1 sequence (Q02083 126-359 limits assumed): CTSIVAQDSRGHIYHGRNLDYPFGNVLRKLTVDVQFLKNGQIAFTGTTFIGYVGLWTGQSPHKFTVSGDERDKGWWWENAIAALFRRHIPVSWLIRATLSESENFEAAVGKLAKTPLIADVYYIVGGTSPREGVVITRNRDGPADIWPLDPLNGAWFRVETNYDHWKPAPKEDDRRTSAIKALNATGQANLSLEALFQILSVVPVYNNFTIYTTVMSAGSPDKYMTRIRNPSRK
T1 sequence (Q02083 29-125 limits assumed): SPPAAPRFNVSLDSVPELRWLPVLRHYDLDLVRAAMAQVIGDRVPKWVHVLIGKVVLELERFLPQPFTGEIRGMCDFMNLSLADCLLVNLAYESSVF

human FAAH = biological target: T2, human FAAH (Homo sapiens, UniProt O00519); experiment: h-FAAH inhibition; type: biochemical; conditions: read-out: h–FAAH (% Inhib)
T2 sequence (O00519 1-579): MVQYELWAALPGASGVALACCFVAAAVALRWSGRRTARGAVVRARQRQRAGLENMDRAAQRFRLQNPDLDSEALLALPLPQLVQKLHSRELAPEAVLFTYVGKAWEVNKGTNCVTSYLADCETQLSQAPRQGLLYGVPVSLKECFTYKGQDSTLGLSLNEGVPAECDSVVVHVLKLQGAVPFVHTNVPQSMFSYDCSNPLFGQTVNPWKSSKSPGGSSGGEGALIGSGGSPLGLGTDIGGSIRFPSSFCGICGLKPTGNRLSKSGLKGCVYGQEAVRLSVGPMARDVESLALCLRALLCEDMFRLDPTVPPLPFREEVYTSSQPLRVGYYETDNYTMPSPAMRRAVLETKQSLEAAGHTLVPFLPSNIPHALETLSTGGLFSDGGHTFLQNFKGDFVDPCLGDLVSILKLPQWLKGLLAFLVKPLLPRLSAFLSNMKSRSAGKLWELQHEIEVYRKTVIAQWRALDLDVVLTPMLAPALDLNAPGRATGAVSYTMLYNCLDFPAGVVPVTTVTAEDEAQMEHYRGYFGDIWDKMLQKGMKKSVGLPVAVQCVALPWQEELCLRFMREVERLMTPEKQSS

human AC = biological target: T3, human AC (Homo sapiens, UniProt Q13510); experiment: h-AC inhibition, UPLC-MS-based assay; type: biochemical; conditions: for IC50: h–AC IC50 (μM) ± SD, LC/MS method, mean of three or more determinations
T3 sequence (Q13510 22-395): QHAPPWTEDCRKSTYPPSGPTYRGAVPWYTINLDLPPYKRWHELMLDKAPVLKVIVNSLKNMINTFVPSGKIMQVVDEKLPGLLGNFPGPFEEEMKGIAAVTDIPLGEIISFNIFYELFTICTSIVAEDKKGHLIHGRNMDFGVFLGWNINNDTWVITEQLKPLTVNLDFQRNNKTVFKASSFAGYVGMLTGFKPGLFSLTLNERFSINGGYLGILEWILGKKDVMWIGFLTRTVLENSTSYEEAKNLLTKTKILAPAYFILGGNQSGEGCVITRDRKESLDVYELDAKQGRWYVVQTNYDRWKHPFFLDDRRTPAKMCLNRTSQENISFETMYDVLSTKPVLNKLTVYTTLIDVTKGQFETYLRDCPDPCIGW

human NAAA [2] = biological target: T4, human NAAA (Homo sapiens, UniProt Q02083); experiment: h-NAAA inhibition, UPLC-MS-based assay; type: biochemical; conditions: for IC50: h–NAAA IC50 (μM) ± SD, LC/MS method, mean of three or more determinations
T4 sequence (Q02083 29-359): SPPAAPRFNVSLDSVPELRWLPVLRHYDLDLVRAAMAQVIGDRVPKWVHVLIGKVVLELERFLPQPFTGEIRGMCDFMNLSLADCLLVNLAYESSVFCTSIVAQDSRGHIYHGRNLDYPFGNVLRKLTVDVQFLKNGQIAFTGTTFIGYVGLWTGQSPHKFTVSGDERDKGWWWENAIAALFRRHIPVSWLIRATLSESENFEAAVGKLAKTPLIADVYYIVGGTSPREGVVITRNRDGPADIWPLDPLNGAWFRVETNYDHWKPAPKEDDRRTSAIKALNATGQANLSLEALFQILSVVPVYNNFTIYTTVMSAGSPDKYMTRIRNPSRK

rat-NAAA (r-NAAA) = conditions: read-out: r-NAAA IC50; ref 19a, 19c, 19d, 19f; cited from earlier work
[3] = In vitro mouse plasma stability; type: in vitro ADME
[4] = Plasma pharmacokinetics in rats after IV or oral dosing; type: in vivo; conditions: rat
[5] = In vitro rat plasma stability; type: in vitro ADME

- IC50 (human NAAA [1]): 27.2 ± 1.89 µM
Compound: O=C(CCCCc1ccccc1)N[C@H]1CNC1=O [Compound 11c, 5–Phenyl–N–[(S)–2–oxoazetidin–3–yl]–pentanamide]

- IC50 (human NAAA [1]): 0.6 ± 0.17 µM
Compound: O=C(CCCCCCc1ccccc1)N[C@H]1CNC1=O [Compound 11e, 7–Phenyl–N–[(S)–2–oxoazetidin–3–yl]–heptanamide]

- half-life at […] [5]: > 2 h
- half-life at 2 µM [3]: > 2 h
Compound: O=C(CCc1ccccc1)N[C@H]1CNC1=O [Compound 11a, 3–Phenyl–N–[(S)–2-oxoazetidin–3–yl]–propanamide]

- IC50 (human NAAA [1]): 12.1 ± 2.18 µM
Compound: O=C(CCCCCc1ccccc1)N[C@H]1CNC1=O [Compound 11d, N–[(S)–2–Oxoazetidin–3–yl]–6–phenyl–hexanamide]

- IC50 (human NAAA [1]): 73.4 ± 10.7 µM
Compound: O=C(CCCc1ccccc1)N[C@H]1CNC1=O [Compound 11b, N–[(S)–2-Oxoazetidin–3–yl]–4–phenyl–butanamide]

Second part, the molecule before the results:

Compound: CCCCc1ccc(C(=O)N[C@H]2CNC2=O)cc1 [Compound 11k, 4–Butyl–N–[(S)–2–oxoazetidin–3–yl]–benzamide]
- IC50 (human NAAA [1]): 13.8 ± 3.41 µM

Compound: CCCCCCCC(=O)N[C@H]1CNC1=O [Compound 11g, N–[(S)–2–Oxoazetidin–3–yl]–octanamide]
- IC50 (human NAAA [1]): 1.91 ± 0.28 µM

Compound: CCCCCCCCCCC(=O)N[C@H]1CNC1=O [Compound 11p, N–[(S)–2–Oxoazetidin–3–yl]–undecanamide]
- inhibition at 100 µM (human FAAH): < 10%
- increase in potency toward h–AC compared to 11h (human AC; LC/MS assay): ca. 7 fold
- IC50 (human AC): 0.33 ± 0.1 µM
- increase in potency toward h–NAAA compared to 11h (human NAAA [2]; LC/MS assay): ca. 2 fold
- IC50 (human NAAA [2]): 0.056 ± 0.01 µM

Compound: C[C@@H]1OC(=O)[C@@H]1NC(=O)OCCCCCc1ccccc1 [Compound 2, 5–phenylpentyl N–[(2S,3R)–2–methyl–4–oxo–oxetan–3–yl]carbamate, reference compound]
- IC50 (human NAAA [1]): 0.047 ± 0.005 µM
- IC50 (rat-NAAA (r-NAAA)): 0.05 µM

Compound: O=C(CCc1ccccc1)N[C@H]1COC1=O [Compound 1, (S)–N–(2–oxo–3–oxetanyl)–3–phenylpropionamide, reference compound]
- IC50 (human NAAA [1]): 1.29 µM
- half-life at 2 µM [3]: < 0.0167 h
- IC50 (rat-NAAA (r-NAAA)): 0.42 µM

Compound: CCCCC/C=C/CC(=O)N[C@H]1CNC1=O [Compound 11i, (E)–N–[(S)–2–Oxoazetidin–3–yl]–non–3–enamide]
- IC50 (human NAAA [1]): 3.09 ± 0.5 µM
- loss/drop in potency (h-NAAA) compared to 11h (human NAAA [1]; fluorogenic assay): 10 fold

Compound: CCCCCCCCC(=O)N[C@@H]1CNC1=O [Compound 12h, N–[(R)–2–Oxoazetidin–3–yl]–nonanamide]
- IC50 (human NAAA [1]): 74.5 ± 9.08 µM
- loss/drop in potency (h-NAAA) compared to 11h (human NAAA [1]; fluorogenic assay): > 200 fold
- inhibition at 100 µM (human FAAH): < 10%
- IC50 (human AC): 27.8 µM
- IC50 (human NAAA [2]): 45.5 µM

Compound: CCCCCCC(=O)N[C@H]1CNC1=O [Compound 11f, N–[(S)–2–Oxoazetidin–3–yl]–heptanamide]
- IC50 (human NAAA [1]): 27 ± 6.15 µM
- drop in potency (h-NAAA) compared to 11e (human NAAA [1]; fluorogenic assay): > 40 fold

Compound: CCCCCCCCC(=O)N[C@H]1CNC1=O [Compound 11h, N–[(S)–2–Oxoazetidin–3–yl]–nonanamide]
- inhibition at 100 µM (human FAAH): < 10%
- selectivity for NAAA vs. AC (human AC; h-AC IC50 / h-NAAA IC50, LC/MS assays): ca. 19 fold
- IC50 (human AC): 2.53 ± 0.06 µM
- AUC ([4]; iv, 3 mg/kg): 111 ng·h/mL
- Cmax ([4]; iv, 3 mg/kg): 397 ng/mL
- Tmax ([4]; iv, 3 mg/kg): 4.8 min
- clearance ([4]; iv, 3 mg/kg): 702 mL/min/kg
- AUC ([4]; po, 10 mg/kg): 247 ng·h/mL
- Cmax ([4]; po, 10 mg/kg): 570 ng/mL
- IC50 (human NAAA [2]): 0.13 ± 0.03 µM
- half-life at […] [5]: > 2 h
- half-life at 2 µM [3]: 1.72 h

Compound: CCCCCCCNC(=O)N[C@H]1CNC1=O [Compound 33, 1–Heptyl–3–[(S)–2–oxoazetidin–3–yl]–urea]
- IC50 (human NAAA [1]): 5.76 ± 0.9 µM

Compound: CCCCC/C=C\CC(=O)N[C@H]1CNC1=O [Compound 11j, (Z)–N–[(S)–2–Oxoazetidin–3–yl]–non–3–enamide]
- IC50 (human NAAA [1]): 3.9 ± 0.86 µM
- loss/drop in potency (h-NAAA) compared to 11h (human NAAA [1]; fluorogenic assay): 10 fold
